Results reported in patent publication US20230192617A1, “AZABICYCLIC(THIO)AMIDES AS FUNGICIDAL COMPOUNDS” (Bayer CropScience Aktiengesellschaft, priority 2020, published 2023).

Tests used:
[1] = test system: Botrytis cinerea; test: In vivo preventive test on Botrytis cinerea (grey mould); conditions: 500 ppm of active ingredient, preventive spray on gherkin or cabbage, evaluated 4 to 5 days after inoculation, read-out: efficacy
Method in brief: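 Young gherkin or cabbage plants were sprayed with compound in DMSO/acetone/Tween 80 diluted in water, then inoculated 24 hours later with a B. cinerea spore suspension. Incubation lasted 4 to 5 days: gherkin at 17° C., 90% relative humidity; cabbage at 20° C., 100% relative humidity.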

[2] = test system: Alternaria brassicae; test: In vivo preventive test on Alternaria brassicae (leaf spot on radish or cabbage); conditions: 500 ppm of active ingredient, preventive spray on radish or cabbage, evaluated 3 to 4 days after inoculation, read-out: efficacy
Method in brief: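 Young radish or cabbage plants were sprayed with compound dissolved in DMSO/acetone/Tween 80 and diluted in water; controls received solvent only. Inoculation by spraying A. brassicae spore suspension 24 h later, then 3–4 days at 20 °C and 100% relative humidity.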

[3] = test system: Colletotrichum lindemuthianum; test: B-8. Colletotrichum lindemuthianum in vitro cell test; format: cell-based; conditions: 144 h, 20 ppm of active ingredient, 6 days incubation, liquid culture, absorbance, read-out: efficacy (inhibition of fungal growth)
Method in brief: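 Spore suspension of C. lindemuthianum in liquid medium exposed to DMSO-solubilized compounds (final DMSO ≤1%) for 6 days. Mycelial growth read by absorbance, with inhibition calculated relative to compound-free control wells.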

[4] = test system: Pyrenophora teres; test: In vivo preventive test on Pyrenophora teres (net blotch on barley); conditions: 240 h, 500 ppm of active ingredient, preventive spray on barley, evaluated 10 days after inoculation, read-out: efficacy
Procedure: B-3. In Vivo Preventive Test on Pyrenophora Teres (Net Blotch on Barley) [table] The active ingredients were made soluble and homogenized in a mixture of Dimethyl sulfoxide/Acetone/Tween® 80 and then diluted in water to the desired concentration. The young plants of barley were treated by spraying the active ingredient prepared as described above. Control plants were treated only with an aqueous solution of Acetone/Dimethyl sulfoxide/Tween® 80. After 24 hours, the plants were contaminated by spraying the leaves with an aqueous suspension of Pyrenophora teres spores. The contaminated barley plants were incubated for 48 hours at 20° C. and at 100% relative humidity and then for 8 days at 20° C. and at 70-80% relative humidity.

[5] = test system: Alternaria alternata; test: Alternaria alternata in vitro cell test; format: cell-based; conditions: 120 h, 20 ppm of active ingredient, liquid culture, 5 days incubation, spectrometric measurement of mycelium growth, read-out: efficacy (inhibition of fungal growth)
Method in brief: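 Liquid culture assay in which A. alternata spores in medium received DMSO-solubilized compound (final DMSO ≤1%). After 5 days, mycelium growth was measured spectrometrically. Inhibition was calculated against fungicide-free control wells.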

[6] = test system: Sphaerotheca fuliginea; test: In vivo preventive test on Sphaerotheca fuliginea (powdery mildew on cucurbits); conditions: Podosphaera fuliginea, 192 h; 500 ppm of active ingredient; preventive spray on gherkin; evaluated 8 days after inoculation; read-out: efficacy
Method in brief: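 Young gherkin plants were sprayed with compound in DMSO/acetone/Tween 80 diluted in water. They were inoculated 24 h later with a spore suspension of Sphaerotheca fuliginea. Plants were then kept for 8 days at 20 °C and 70–80% relative humidity.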

[7] = Measurement of Log P values by HPLC on reversed phase columns (EEC directive 79/831 Annex V.A8); format: physicochemical; conditions: reversed phase HPLC column
Method in brief: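 Reversed-phase HPLC with UV detection per EEC 79/831 Annex V.A8, linear 10–95% acetonitrile gradient. Aqueous eluent: 0.1% formic acid (acidic), 0.001 M ammonium acetate (neutral), or 0.1% phosphoric acid (acidic); multiple values in one method joined by "+".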

[8] = test system: Colletotrichum lindemuthianum; test: In vivo preventive test on Colletotrichum lindemuthianum (leaf spot on bean); conditions: 168 h, 500 ppm of active ingredient, preventive spray on bean, evaluated 7 days after inoculation, read-out: efficacy
Procedure: B-5. In Vivo Preventive Test on Colletotrichum lindemuthianum (Leaf Spot on Bean) [table] The active ingredients were made soluble and homogenized in a mixture of Dimethyl sulfoxide/Acetone/Tween® 80 and then diluted in water to the desired concentration. The young plants of bean were treated by spraying the active ingredient prepared as described above. Control plants were treated only with an aqueous solution of Acetone/Dimethyl sulfoxide/Tween® 80. After 24 hours, the plants were contaminated by spraying the leaves with an aqueous suspension of Colletotrichum lindemuthianum spores. The contaminated bean plants were incubated for 24 hours at 20° C. and at 100% relative humidity and then for 6 days at 20° C. and at 90% relative humidity.

[9] = test system: Botrytis cinerea; test: B-11. Botrytis cinerea in vitro cell test; format: cell-based; conditions: 144 h, 20 ppm of active ingredient, 6 days incubation, liquid culture, absorbance, read-out: efficacy (inhibition of fungal growth)
Method in brief: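 B. cinerea spores were grown in liquid culture with compound (DMSO ≤1% final). Mycelium growth was measured spectrometrically after 6 days, with inhibition taken as absorbance relative to untreated control wells.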

[10] = method [a]: LC-UV, acidic range, 0.1% formic acid in water and acetonitrile as eluent

SMILES	pest or weed control at 500 ppm [1]	pest or weed control at 500 ppm [2]	inhibition at 20 ppm [3]	pest or weed control at 500 ppm [4]	inhibition at 20 ppm [5]	pest or weed control at 500 ppm [6]	chromatographic logP [7, 10]	pest or weed control at 500 ppm [8]	inhibition at 20 ppm [9]	chromatographic logP ([7]; method [b]: LC-UV, neutral range, 0.001 molar ammonium acetate solution in water and acetonitrile as eluent)
Cc1ccc(C(F)(F)CNC(=O)c2c(Oc3cccc(Cl)c3)nnc3ccccc23)c(C)c1 [I-024]	90 to 100%	90 to 100%	90 to 100%	70 to 79%	90 to 100%	90 to 100%	4.2	90 to 100%	–	–
Cc1ccc([C@@H](F)CNC(=O)c2c(Oc3cccc(Cl)c3)nnc3ccccc23)cc1C (racemic) [I-048]	90 to 100%	90 to 100%	90 to 100%	90 to 100%	90 to 100%	–	4.05	90 to 100%	90 to 100%	–
Cc1ccc(CCNC(=O)c2c(Oc3cccc(C(F)(F)F)c3)cnc3c2OCCO3)c(C)c1 [I-110]	90 to 100%	90 to 100%	90 to 100%	90 to 100%	90 to 100%	90 to 100%	3.6	90 to 100%	–	–
Cc1ccc(C(F)(F)CNC(=O)c2c(Oc3cccc(C(F)(F)F)c3)cnc3c2OCCO3)c(C)c1 [I-109]	90 to 100%	90 to 100%	90 to 100%	90 to 100%	90 to 100%	90 to 100%	3.71	90 to 100%	–	–
Cc1ccc2c(c1)CCC[C@@H]2NC(=O)c1c(Oc2cccc(C(F)(F)F)c2)cnc2c1OCCO2 (racemic) [I-112]	90 to 100%	90 to 100%	90 to 100%	80 to 89%	90 to 100%	90 to 100%	3.8	90 to 100%	–	3.79
Cc1cccc(Oc2nnc3ccccc3c2C(=O)NCC(F)(F)c2ccc(Br)cc2Cl)c1 [I-015]	90 to 100%	90 to 100%	90 to 100%	70 to 79%	90 to 100%	90 to 100%	4.37	–	–	–
Cc1ccc2c(C(=O)NC[C@H](F)c3ccc(Cl)cc3Cl)c(Oc3cccc(C(F)(F)F)c3)nnc2c1 (racemic) [I-047]	90 to 100%	90 to 100%	90 to 100%	80 to 89%	90 to 100%	90 to 100%	4.45	–	–	–
Cc1ccc(CCNC(=O)c2c(Oc3cccc(C(F)(F)F)c3)nnc3ccccc23)c(C)c1 [I-230]	90 to 100%	90 to 100%	90 to 100%	80 to 89%	90 to 100%	90 to 100%	–	–	90 to 100%	–
Cc1cccc(Oc2nnc3ccccc3c2C(=O)NCC(F)(F)c2ccc(Cl)cc2)c1 [I-014]	90 to 100%	90 to 100%	90 to 100%	70 to 79%	90 to 100%	90 to 100%	3.87	–	–	–
